Measurements published in US20230028293A1, “MULTIPLE MYELOMA COMBINATION THERAPIES BASED ON PROTEIN TRANSLATION INHIBITORS AND IMMUNOMODULATORS” (The Regents of the University of Colorado, a body corporate, priority 2019, published 2023).

Columns and labels:
Assay type in all cases: cell-based
[1] = tested on: protein translation in MM cell lines and primary MM cells; assay: OP-Puro protein translation assay in vitro; conditions: omacetaxine 50 nM 2.5 h, bortezomib 6 h, 24 h, 48 h
Protocol: To examine whether myeloma cells depend on inherently high protein synthesis, the O-Propargyl-puromycin (OP-Puro) assay was used to measure the rate of amino-acid incorporation into translating ribosomes by flow cytometry.
Protein synthesis levels were determined in vitro utilizing the puromycin analog O-propargyl-puromycin (OP-Puro) in the protein synthesis assay kit (Cayman Chemical) according to manufacturer instructions. For in vivo protein synthesis, engrafted NSG mice were injected IP with 500 μg puromycin (Gibco), then euthanized after 1.5 h, marrow was flushed, and cells stained with anti-puromycin antibody (12D10, Alexa-488, Millipore Sigma), followed by flow cytometry.

[2] = tested on: MM cell lines; assay: Two-drug combination matrix in MM cell lines, ZIP synergy; conditions: for synergy of translation inhibitor with pomalidomide: MM.1S and H929 cells; for ZIP δ-score for synergy with omacetaxine: BET inhibitor with omacetaxine
[3] = tested on: MM1.S cells; assay: Timecourse of apoptosis and cell death by Annexin V and DAPI flow cytometry
Description: FIG. 2A depicts the timecourse of induction of apoptosis and cell death by omacetaxine in MM1.S cells as measured by Annexin V and DAPI staining by flow cytometry.
FIG. 10A depicts the timecourse of induction of apoptosis and cell death by pomalidomide in MM1.S cells as measured by annexin V and DAPI staining by flow cytometry.

CC(C)C[C@H](NC(=O)[C@H](Cc1ccccc1)NC(=O)c1cnccn1)B(O)O [bortezomib]
ability to inhibit translation in myeloma cell lines [1]: did not occur
ability to inhibit translation in myeloma cell lines ([1]; listed as Boitezomib): did not change translation levels

C/C(=C\[C@H](C)C(=O)C[C@H](O)CC1CC(=O)NC(=O)C1)[C@@H]1OC(=O)/C=C/CC/C=C/C=C\[C@@H]1C [lactimidomycin]
synergy of translation inhibitor with pomalidomide [2]: synergistic

CCS(=O)(=O)Nc1ccc(Oc2ccc(F)cc2F)c(-c2cn(C)c(=O)c3[nH]ccc23)c1 [ABBV-075]
ZIP δ-score for synergy with pomalidomide ([2]; ABBV-075 with pomalidomide, MM.1S cell line): 6.597
ZIP δ-score for synergy with omacetaxine ([2]; MM.1S cell line): 12.02

COc1ccc(C[C@H]2NC[C@H](O)[C@H]2OC(C)=O)cc1 [anisomycin]
synergy of translation inhibitor with pomalidomide [2]: synergistic

Cc1sc2c(c1C)C(c1ccc(Cl)cc1)=N[C@@H](CC(=O)Nc1ccc(O)cc1)c1nnc(C)n1-2 [OTX015]
ZIP δ-score for synergy with omacetaxine ([2]; MM.1S cell line): 7.64
ZIP δ-score for synergy with pomalidomide ([2]; OTX015 with pomalidomide, MM cell lines): 1.84

C[C@@H]1C[C@@H]([C@H](O)CC2CC(=O)NC(=O)C2)C(=O)[C@@H](C)C1 [cycloheximide]
synergy of translation inhibitor with pomalidomide [2]: synergistic

Cc1sc2c(c1C)C(c1ccc(Cl)cc1)=N[C@@H](CC(=O)OC(C)(C)C)c1nnc(C)n1-2 [JQ1]
ZIP δ-score for synergy with omacetaxine ([2]; MM.1S cell line): 17.56
ZIP δ-score for synergy with pomalidomide ([2]; JQ1 100 nM with pomalidomide 1.25 μM, U266, 96 h): 21.18

Nc1cccc2c1C(=O)N(C1CCC(=O)NC1=O)C2=O (stereo not shown) [pomalidomide]
time at which cell death began [3]: 24 h
time at which induction of apoptosis started [3]: 24 h
